In patent EP0399731B2, “Azaindenes” (AstraZeneca AB, priority 1989, dated 1990):

Key:
[1] = test system: angiotensin II-induced pressor responses; test: Test C: antagonism of angiotensin II-induced pressor responses in terminally-anaesthetised or conscious rats; format: in vivo; conditions: Rattus norvegicus
Description: This in vivo test involves using terminally-anaesthetised or conscious rats in which an arterial catheter has been implanted under anaesthesia for the measurement of changes in blood pressure. The All antagonistic effects of the test compound following oral or parenteral administration, are assessed against angiotensin II-induced pressor responses. To ensure that the effect is specific the effect of the test compound on vasopressin-induced pressor responses may also be determined in the same preparation.

[2] = test system: All-induced contractions of isolated rabbit aorta; test: Test B: antagonism of All-induced contractions of isolated rabbit aorta; format: cell-based; conditions: 37°C
Description: This in vitro test involves the measurement of the antagonistic effects of the test compound against All-induced contractions of isolated rabbit aorta, maintained in a physiological salt solution at 37°C. In order to ensure that the effect of the compound is specific to antagonism of All, the effect of the test compound on noradrenaline-induced contractions may also be determined in the same preparation.

[3] = target: T1, All (angiotensin II) receptors (Cavia porcellus, UniProt Q9WV26); test: Test A: displacement of radiolabelled All binding from guinea pig adrenal gland membrane fraction; conditions: guinea pig adrenal gland membranes; read-out: IC50 (concentration for 50% displacement of radiolabelled All binding)
T1 construct: from tissue; host or cells: guinea pig adrenal gland, cell surface membrane fraction
T1 sequence (Q9WV26 1-359): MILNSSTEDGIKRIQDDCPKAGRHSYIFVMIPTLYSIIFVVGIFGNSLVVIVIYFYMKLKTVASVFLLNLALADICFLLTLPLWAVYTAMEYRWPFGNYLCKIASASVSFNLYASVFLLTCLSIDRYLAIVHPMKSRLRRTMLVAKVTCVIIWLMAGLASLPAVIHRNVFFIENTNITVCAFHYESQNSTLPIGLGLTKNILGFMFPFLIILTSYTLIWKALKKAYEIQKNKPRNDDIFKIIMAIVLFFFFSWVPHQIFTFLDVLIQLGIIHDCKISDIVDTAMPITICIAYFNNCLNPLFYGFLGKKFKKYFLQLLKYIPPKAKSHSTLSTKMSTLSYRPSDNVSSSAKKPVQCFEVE
Description: This in vitro procedure involves the incubation of the test compound initially at a concentration of 100 micromolar (or less) in a buffered mixture containing fixed concentrations of radiolabelled All and a cell surface membrane fraction prepared from a suitable angiotensin target tissue. In this test, the source of cell surface membranes is the guinea pig adrenal gland which is well known to respond to All. Interaction of the radiolabelled All with its receptors (assessed as radiolabel bound to the particulate membrane fraction following removal of unbound radiolabel by a rapid filtration procedure such as is standard in such studies) is antagonized by compounds which also bind to the membrane receptor sites and the degree of antagonism (observed in the test as displacement of membrane-bound radioactivity) is determined readily by comparing the receptor-bound radioactivity in the presence of the test compound at the specified test concentration with a control value determined in the absence of the test compound. Using this procedure compounds showing at least 50% displacement of radiolabelled All binding at a concentration of 10^-4 M are retested at lower concentrations to determine their potency. […]

IC50 [3]: 14.9 nM
SMILES: CCCCc1nc2cccnc2n1Cc1ccc(-c2ccccc2-c2nnn[nH]2)cc1.Cl [Example 3, 2-butyl-3-[(2'-(1H-tetrazol-5-yl)biphenyl-4-yl)methyl]-3H-imidazo[4,5-b]pyridine hydrochloride]
inhibition at 20 mg/kg ([1]; 1 h, after one hour at a dose of 20mg/kg (oral administration)): 54%
ED50 ([1]; parenteral administration): 1.07 mg/kg
pA2 [2]: 9.2
